Source: patent US4661596A, “Quinolinyl (or pyridinyl) methoxy substituted naphthalene compounds as antiallergic agents” (American Home Products Corporation, priority 1985, dated 1987)

What was measured:
[1] = tested on: LTD4 induced bronchoconstriction; assay: in vivo inhibition of LTD4-induced bronchospasm in guinea pigs; set-up: species or system guinea pig (male Hartley); settings: 50 mg/kg intraduodenal; 10 minutes before induction of bronchospasm by LTD4; average of 6 experiments
[2] = tested on: synthesis of 5-HETE by rat glycogen-elicited polymorphonuclear leukocytes; assay: inhibition of 5-HETE synthesis by rat glycogen-elicited polymorphonuclear leukocytes; type: cell-based, rat (female Wistar); settings: Leukocyte; 50 μM unless otherwise stated; rat PMN, A23187 (10 μM) and [14C] arachidonic acid, 10 minutes preincubation
Experimental: This is especially true with respect to 5,12-diHETE, which is also denoted as LTB4 [see Ford-Hitchinson, J. Roy. Soc. Med., 74, 831 (1981)]. The assay of this Example measures the ability of the compounds of the invention to inhibit the synthesis of 5-HETE by rat glycogen-elicited polymorphonuclear leukocytes.
The array is carried out as follows:
Peritoneal PMN are obtained from female Wistar rats (150-250 g) that received an i.p. injection of 6% glycogen (10 mL). After 24 hours, rats are killed by CO2 asphyxiation and peritoneal cells are harvested by peritoneal lavage using Ca^++ and Mg^++ free Hanks' balanced salt solution (HBSS). The peritoneal exudate is centrifuged at 400 g for 10 minutes. After centrifugation, the lavaged fluid is removed and the cell pellet is resuspended in HBSS containing Ca^++ and Mg^++ and 10 mM L-cysteine at a concentration of 2×10^7 cells/mL. To 1 mL portions of cell suspension, test drugs or vehicle are added and incubated at 37° C. for 10 minutes. Following this preincubation, the calcium ionophore (10 μM), A23187, is added together with 0.5 μCi [^14 C] arachidonic acid and further incubated for 10 minutes. The reaction is stopped by the addition of ice cold water (3 mL) and acidifying to pH 3.5. Lipoxygenase products are then extracted twice into diethyl ether. The pooled ether extracts are evaporated to dryness under nitrogen and the residue is redissolved in a small volume of methanol and spotted on aluminum backed pre-coated thin layer chromatographic plates. The samples are then co-chromatographed with authentic reference 5-HETE in the solvent system-hexane:ether:acetic acid (50:50:3). After chromatography, the areas associated with 5-HETE standard are identified by autoradiography, cut out and quantitated by liquid scintillation.
Results are expressed as % inhibition of [^14 C]5-HETE synthesis. [formula]
Testing compounds of the invention in this assay the following results are obtained, where the concentration of the compounds tested is 50 μM unless otherwise stated.

| SMILES | % Inhibition (Statistical Average) Overflow Volume at 5 min. [1] [%] | inhibition at 50 µM [2] [%] |
| --- | --- | --- |
| OC1CCCc2ccc(OCc3ccc4ccccc4n3)cc21 (stereo not shown) [Example 1, 1,2,3,4-Tetrahydro-7-(2-quinolinylmethoxy)-1-naphthalenol] | 56.1 | > 50 |
| Oc1ccc2ccc(OCc3ccc4ccccc4n3)cc2c1 [Example 2, 7-(2-quinolinylmethoxy)-2-naphthalenol] |  | > 50 |
| COc1ccc2ccc(OCc3ccc4ccccc4n3)cc2c1 [Example 3, 2-[[(7-methoxy-2-naphthalenyl)oxy]methyl]quinoline] |  | > 50 |
| Oc1ccc2ccc(OCc3nc4ccccc4s3)cc2c1 [Example 4, 7-(2-benzothiazolylmethoxy)-2-naphthalenol] |  | > 50 |
| Oc1ccc2ccc(OCc3ccccn3)cc2c1 [Example 5, 7-(2-pyridinylmethoxy)-2-naphthalenol] |  | > 50 |
| Nc1cccc2ccc(OCc3ccc4ccccc4n3)cc12 [Example 6, 7-(2-quinolinylmethoxy)-1-naphthalenamine] |  | > 50 |
| Nc1ccc2ccc(OCc3ccc4ccccc4n3)cc2c1 [Example 7, 7-(2-quinolinylmethoxy)-2-naphthalenamine] | 88.7 | > 50 |
| CCS(=O)(=O)Nc1ccc2ccc(OCc3ccc4ccccc4n3)cc2c1 [Example 8, N-[7-(2-quinolinylmethoxy)-2-naphthalenyl]ethane sulfonamide] | 90.6 | > 50 |
| C=C1CCCc2ccc(OCc3ccc4ccccc4n3)cc21 [Example 9, 2-[[(5,6,7,8-tetrahydro-8-methylene-2-naphthalenyl)oxy]methyl]quinoline] |  | > 50 |
| O=S(=O)(Nc1ccc2ccc(OCc3ccc4ccccc4n3)cc2c1)C(F)(F)F [Example 10, N-[7-(2-quinolinylmethoxy)-2-naphthalenyl]trifluoromethane sulfonamide] | 99.0 |  |
